Results: PMC7478165, “Derivatisation of parthenolide to address chemoresistant chronic lymphocytic leukaemia” (MedChemComm, 2019)
Like-named read-outs stand apart in the source and are kept apart here.

Experiments:
[1] = Stability in aqueous solution, pH 7.4; type: physicochemical; conditions: for half-life: pH 7.4, read-out: Stability pH 7.4 T1/2; for stability in aqueous solution: result in words
Experimental: Compounds 2d, 2e, 2f, 2g, 2j, 2aa, 5a, 5d, 5e, 5f, 5ab and 6b were subjected to in vitro DMPK testing. […] The other three (2d, 2j and 2aa) were not retained for further investigation due to poor stability (T1/2 at pH 7.4: 13, 107 and 76 min, Table 1, entries 1, 3 and 4 respectively). One obvious aspect contributing to observed stability is the propensity for PTL derivatives of this type to undergo a retro-amination (reverse-Michael-type mechanism), indeed this reverse reaction is often claimed as a pro-drug mode of action.[29a],[33] […] It is a reasonable assertion that activity observed for these unstable compounds could well be ascribed to free PTL generated rapidly in the assay.

[2] = Microsomal stability assay (mouse); conditions: for Mouse microsomal stability: mouse microsomes; for microsomal CLint: mouse, liver microsomes
[3] = tested on: MEC1 CLL cell line; assay: alamarBlue assay, in vitro antileukaemic activity against MEC1 CLL cell line; type: cell-based
Source text: Defective p53-signalling increases genomic instability and drives tumour progression. A high frequency of p53 inactivation is found in relapsed, treatment-resistant, high risk CLL.[30] […] Owing to resource availability a subset of up to ten of these compounds was prioritised for further investigation. Compounds 2d, 2e, 2j, 2aa, 5a, 5d, 5e, 5f, 5ab and 6b were selected on the basis of reasons including ease of synthetic access, diversity across the chemical space probed and novelty. Those prepared under conditions (i)Scheme 1 (2d, 5a and 6b) were available on a scale and in a purity to directly permit follow-up studies, whereas compounds prepared under conditions (ii)Scheme 1 were prepared on a small scale so were resynthesised. These seven compounds (2e, 2j, 2aa, 5d, 5e, 5f and 5ab) were isolated on >30 mg scale in high purity and progressed to more following studies.
Following the identification of 5f as the most promising drug-like derivative of PTL from the aforementioned parallel/high-throughput screening, the anti-leukaemic activity of 5f was tested once more and compared directly with that of PTL (1) and DMAPT (2a), which serve as comparators and positive controls.
Amine 7 was successfully prepared as follows: 4-Piperidinecarboxylic acid was N-Boc protected to deliver 8 in 92% yield.[43] In order to confidently assign the NMR spectra of compound 8 J-MOD, HSQC and ^1H–^1H COSY were helpful, particularly in establishing that a broad resonance in the proton-decoupled ^13C NMR spectrum, centred on 42.8 ppm, corresponds to the ring-carbons bonded to nitrogen. The carboxylic acid of 8 was converted to the corresponding ethyl-3-keto-propanoate 9 in 24% yield. Conversion of 9 to the N-Boc protected congener 10, was achieved by treatment with acetamidine hydrochloride and potassium carbonate, furnishing 10 in 77% yield. Treatment with trifluoroacetic acid delivered desired compound 7 in 99% yield for the Boc-deprotection step (scale 200 mg, 17% over four linear steps). Thus, evidencing accessibility of amine 7 and with it in hand, it was timely to probe any activity arising from the amine alone. MEC1 sensitivity to 1, 5f and 7 was compared in parallel using the alamarBlue® assay (Fig. 6). […] A pre-peer-reviewed preprint of this article was deposited and may be viewed elsewhere.[44]

[4] = tested on: MEC1 CLL cell line; assay: cells; set-up: alamarBlue (resazurin reduction) viability assay in MEC1 CLL cells; conditions: Homo sapiens, MEC1, 24 h; read-out: alamarBlue EC50 (uM) average
Source text: Defective p53-signalling increases genomic instability and drives tumour progression. A high frequency of p53 inactivation is found in relapsed, treatment-resistant, high risk CLL.[30] […] Owing to resource availability a subset of up to ten of these compounds was prioritised for further investigation. Compounds 2d, 2e, 2j, 2aa, 5a, 5d, 5e, 5f, 5ab and 6b were selected on the basis of reasons including ease of synthetic access, diversity across the chemical space probed and novelty. Those prepared under conditions (i)Scheme 1 (2d, 5a and 6b) were available on a scale and in a purity to directly permit follow-up studies, whereas compounds prepared under conditions (ii)Scheme 1 were prepared on a small scale so were resynthesised. These seven compounds (2e, 2j, 2aa, 5d, 5e, 5f and 5ab) were isolated on >30 mg scale in high purity and progressed to more following studies. Biological efforts at Sygnature Discovery (where differing to University of Birmingham) MEC1 cells were obtained from the American Type Culture Collection (Manassas, VA 20110 USA) and were routinely cultured in RPMI 1640 medium (Sigma-Aldrich) supplemented with 1% L-glutamine (Sigma-Aldrich), 1% Penicillin/Streptomycin (Sigma-Aldrich) and 10% FBS (Gibco). The MEC1 proliferation assay was conducted by performing a re-feed of the MEC1 cells 24 h prior to cell seeding. On the day of the assay, cells were seeded into a 384-well assay plate at a density of 12,500 cells/well in 25 μL of complete MEC1 medium. Compound treatment was performed on the day of cell seeding, with compounds prepared as duplicate compound response curves (final DMSO concentration of 0.6%). Post compound treatment, MEC1 assay plates were returned to a 37 °C/5% CO2 incubator for 24 h of incubation. Following compound treatment, cellular viability was determined by measuring reduction of alamarBlue® reagent (Invitrogen). alamarBlue® reagent (2.5 μL) was added to each assay well to give a 1:10 dilution of the neat stock and assay plates were incubated for 3 h at 37 °C/5% CO2. Reduction of alamarBlue® was determined using an Envision Xcite plate reader (Perkin Elmer) with an excitation wavelength of 560 nm set and an emission wavelength of 590 nm set. Cell viability was determined by normalising raw fluorescent data to a cell only high control and Parthenolide treated low control to provide percentage viability readout. Data was plotted and EC50 values extracted and reported EC50s represent an average of at least two independent assays.

[5] = Caco-2 permeability assay; type: in vitro ADME; conditions: human; for efflux ratio: Caco-2, pH 7.4
[6] = first of two columns headed A to B
[7] = second of two columns headed A to B
[8] = MEC1 cell line pEC50 minus calculated log P
[9] = MEC1 cell line, alamarBlue assay, library screen, read-out: EC50 ave.
[10] = Homo sapiens, MEC1, MEC1 cell line, alamarBlue assay, library screen, read-out: EC50 ave.

## CCn1cc(CN(C[C@@H]2C(=O)O[C@H]3[C@H]2CC/C(C)=C/CC[C@@]2(C)O[C@H]32)C(C)C)cn1 [C00002]
[1]
  half-life: > 2 h
[2]; [6]
  Mouse microsomal stability: 828
[2]; [7]
  Mouse microsomal stability: 2
[3]; [8]
  LipE pEC50–clog P: 1.61
[3]; [9]
  EC50: 5.6 µM

## C/C1=C\CC[C@@]2(C)O[C@@H]2[C@H]2OC(=O)[C@@H](CN(C)CCc3ccccc3)[C@@H]2CC1 [C00004]
[1]
  Stability pH 7.4 T1/2: 76 min
[3]; [8]
  LipE pEC50–clog P: 2.52
[3]; [9]
  EC50: 5.9 µM

## C=C1C(=O)O[C@@H]2[C@H]3O[C@]3(C)CC/C=C(\C)CC[C@@H]12 [PTL, parthenolide]
[3]; Homo sapiens, MEC1, MEC1 cells, alamarBlue, 1, 5f and 7 compared in parallel, CalcuSyn, read-out: EC50
  EC50: 3.6 µM
[3]; Homo sapiens, MEC1, MEC1 cells, alamarBlue, direct comparison of 5f with PTL and DMAPT, n = 5, read-out: EC50
  EC50: 6.2 µM

## COc1ccc(CN(C)C[C@@H]2C(=O)O[C@H]3[C@H]2CC/C(C)=C/CC[C@@]2(C)O[C@H]32)cc1OC [Compound 2j]
[1]
  half-life: 1.78 h
[4]
  EC50: 9.7 µM
[3]; [9]
  EC50: < 15 µM

## C/C1=C\CC[C@@]2(C)O[C@@H]2[C@H]2OC(=O)[C@@H](CN3CCC(Oc4cccnc4)CC3)[C@@H]2CC1 [C00006]
[1]
  half-life: > 2 h
[2]; [6]
  Mouse microsomal stability: 251
[2]; [7]
  Mouse microsomal stability: 6
[3]; [8]
  LipE pEC50–clog P: 2.48
[3]; [9]
  EC50: 5.4 µM

## CCN(CCO)C[C@@H]1C(=O)O[C@H]2[C@H]1CC/C(C)=C/CC[C@@]1(C)O[C@H]21 [C00001]
[1]
  Stability pH 7.4 T1/2: 13 min
[3]; [8]
  LipE pEC50–clog P: 3.31
[3]; [9]
  EC50: 4.7 µM

## CC1=CCCC2(C)OC2C2OC(=O)C(CN3CCCCC3)C2CC1 (stereo not shown) [Compound 5b]
[1]
  stability in aqueous solution: greater than two hours
[3]; Homo sapiens, MEC1, read-out: EC50 ave., MEC1 cell line, alamarBlue assay, library screen
  EC50: < 15 µM

## C/C1=C\CC[C@@]2(C)O[C@@H]2[C@H]2OC(=O)[C@@H](CN(CC3CC3)C(C)C)[C@@H]2CC1 [Compound 2f]
[4]
  EC50: 12.2 µM
[3]; [10]
  EC50: < 15 µM

## C/C1=C\CC[C@@]2(C)O[C@@H]2[C@H]2OC(=O)[C@@H](CN(CCO)C3CCCCC3)[C@@H]2CC1 [Compound 2g]
[4]
  EC50: 10 µM
[3]; [10]
  EC50: < 15 µM

## C/C1=C\CC[C@@]2(C)O[C@@H]2[C@H]2OC(=O)[C@@H](CN3CCC(c4ccc(C(N)=O)cc4)CC3)[C@@H]2CC1 [Compound 5h]
[4]
  EC50: 13.8 µM
[3]; [10]
  EC50: < 15 µM

## C/C1=C\CC[C@@]2(C)O[C@@H]2[C@H]2OC(=O)[C@@H](CN[C@@H](Cc3ccccc3)C(=O)O)[C@@H]2CC1 [Compound 6b]
[1]
  stability in aqueous solution: greater than two hours
[2]
  microsomal CLint: 9 µL/min/mg
[5]
  efflux ratio: 2.7
[3]; [10]
  EC50: < 15 µM

## C/C1=C\CC[C@@]2(C)O[C@@H]2[C@H]2OC(=O)[C@@H](CN3CCC(OCc4cccnc4)CC3)[C@@H]2CC1 [Compound 5ab]
[1]
  stability in aqueous solution: greater than two hours
[2]
  microsomal CLint: > 100 µL/min/mg
[3]; [10]
  EC50: < 15 µM

## C/C1=C\CC[C@@]2(C)O[C@@H]2[C@H]2OC(=O)[C@@H](CN3CCC(OCc4cccnc4)CC3)[C@@H]2CC1 [C00009]
[1]
  half-life: > 2 h
[2]; [6]
  Mouse microsomal stability: 128
[2]; [7]
  Mouse microsomal stability: 11
[5]
  efflux ratio: 0.8
[5]; Caco-2, pH 7.4, A to B
  Papp A→B: 10.9 ×10⁻⁶ cm/s
[5]; Caco-2, pH 7.4, B to A
  Papp B→A: 9.1 ×10⁻⁶ cm/s
[3]; [8]
  LipE pEC50–clog P: 2.29
[3]; [9]
  EC50: 7.6 µM

## COc1ccc(CN(C)C[C@@H]2C(=O)O[C@H]3[C@H]2CC/C(C)=C/CC[C@@]2(C)O[C@H]32)cc1OC [C00003]
[1]
  Stability pH 7.4 T1/2: 107 min
[3]; [8]
  LipE pEC50–clog P: 1.48
[3]; [9]
  EC50: 5.6 µM

## C/C1=C\CC[C@@]2(C)O[C@@H]2[C@H]2OC(=O)[C@@H](CN3CCC(O)(c4ccccc4)CC3)[C@@H]2CC1 [C00007]
[1]
  half-life: > 2 h
[3]
  LipE pEC50–clog P: 1.90
[3]; [9]
  EC50: 6 µM

## C/C1=C\CC[C@@]2(C)O[C@@H]2[C@H]2OC(=O)[C@@H](CN(C)CCc3ccccc3)[C@@H]2CC1 [Compound 2aa]
[1]
  half-life: 1.27 h
[3]; [9]
  EC50: < 15 µM

## CCN(CCO)C[C@@H]1C(=O)O[C@H]2[C@H]1CC/C(C)=C/CC[C@@]1(C)O[C@H]21 [Compound 2d]
[1]
  half-life: 0.217 h
[3]; [9]
  EC50: < 15 µM

## CC1=CCCC2(C)OC2C2OC(=O)C(CSCCO)C2CC1 (stereo not shown) [Compound 3]
[3]; result in words
  activity against the MEC1 CLL cell line: lack of activity

## CCn1cc(CN(C[C@@H]2C(=O)O[C@H]3[C@H]2CC/C(C)=C/CC[C@@]2(C)O[C@H]32)C(C)C)cn1 [Compound 2e]
[1]
  stability in aqueous solution: greater than two hours
[2]
  microsomal CLint: > 100 µL/min/mg
[3]; [9]
  EC50: < 15 µM

## C/C1=C\CC[C@@]2(C)O[C@@H]2[C@H]2OC(=O)[C@@H](CN3CCC(Oc4cccnc4)CC3)[C@@H]2CC1 [Compound 5d]
[1]
  stability in aqueous solution: greater than two hours
[2]
  microsomal CLint: > 100 µL/min/mg
[3]; [9]
  EC50: < 15 µM
